{"source": "paper PMC9845987", "about": "(Cancer research, 2023)", "key": {"YUHEF cells": {"test_system": "YUHEF cells", "settings": "R406 3.16 μM, 72 h"}, "MeWo cells": {"test_system": "MeWo cells", "settings": "R406 3.16 μM, 72 h"}, "[1]": {"test_system": "NF1^LoF melanoma cell lines", "experiment": "Growth rate inhibition assay", "format": "cell-based, human", "settings": "for Overall drug sensitivity (area over the dose-response curve): NF1^LoF cell lines; for Normalized growth rate (DIP rate) dose response: nine NF1^LoF melanoma cell lines, 7 day-averaged, four concentrations"}, "DNA-PK": {"target": "DNA-PK (Homo sapiens, UniProt P78527)", "experiment": "Biochemical kinase inhibition assay", "settings": "10 μM"}, "WM3918 xenografts": {"test_system": "WM3918 xenografts", "experiment": "In vivo xenograft assay, WM3918", "parameters": "species or system mouse", "settings": "50 mg/kg IP"}, "SYK": {"target": "SYK (Homo sapiens, UniProt P43405)", "experiment": "Biochemical kinase inhibition assay"}, "p-4EBP1^T37/46": {"test_system": "p-4EBP1^T37/46", "experiment": "Quantitative immunofluorescence of p-4EBP1 in MeWo cells", "format": "cell-based, human", "settings": "6 h, different concentrations"}, "p-AKT^S473": {"test_system": "p-AKT^S473", "experiment": "Quantitative immunofluorescence of p-AKT in MeWo cells", "format": "cell-based, human", "settings": "6 h, different concentrations"}, "COLO792 xenografts": {"test_system": "COLO792 xenografts", "experiment": "In vivo xenograft assay, COLO792", "parameters": "species or system mouse", "settings": "50 mg/kg IP"}, "[2]": {"test_system": "p-AKT^S473 in WM3918 xenograft tumors", "experiment": "Xenograft pharmacodynamic Western blot", "format": "in vivo, mouse", "settings": "single dose 100 mg/kg IP; 0.5 h after dosing"}, "p-ERK^T202/Y204": {"test_system": "p-ERK^T202/Y204", "experiment": "Quantitative immunofluorescence of p-ERK in MeWo cells", "format": "cell-based, human", "settings": "6 h, different concentrations"}, "mTOR": {"target": "mTOR (Homo sapiens, UniProt P42345)", "experiment": "Biochemical kinase inhibition assay", "settings": "10 μM"}, "PI4KB": {"target": "PI4KB (Homo sapiens, UniProt Q9UBF8)", "experiment": "Biochemical kinase inhibition assay", "settings": "10 μM"}, "p-BLNK^Y96": {"test_system": "p-BLNK^Y96", "experiment": "Western blot of p-BLNK in IgM-stimulated Ramos cells", "format": "cell-based, human", "settings": "6 h"}, "[3]": {"test_system": "p-EGFR^Y1068 in WM3918 xenograft tumors", "experiment": "Xenograft pharmacodynamic Western blot", "format": "in vivo, mouse", "settings": "single dose 100 mg/kg IP; 0.5 h after dosing"}, "[4]": {"test_system": "human epidermal primary melanocytes (NHEM-Ad)", "experiment": "Growth rate inhibition assay, primary melanocytes", "format": "cell-based", "settings": "highest concentration (1 μM)"}}, "note": "Like-named read-outs stand apart in the source and are kept apart here."}
{"compound": "COc1cc(Nc2ncc(F)c(Nc3ccc4c(n3)NC(=O)C(C)(C)O4)n2)cc(OC)c1OC", "note": "[R406]", "values": [{"measurement": "p-S6 and Ki-67 levels", "setting": "YUHEF cells", "result": "reduced p-S6 and Ki-67"}, {"measurement": "p-S6 and Ki-67 levels", "setting": "MeWo cells", "result": "reduced p-S6 and Ki-67"}, {"measurement": "Reduction of growth rate", "setting": "[1]; MeWo, YUHEF and WM3918, R406 at 3.16 μM, 7-day", "result": "approximately 2 fold"}]}
{"compound": "N-(2-chloro-5-(4-((3-chloro-4-fluorophenyl)amino)-3-cyanoquinolin-6-yl)pyridin-3-yl)methanesulfonamide [MTX-216]", "values": [{"measurement": "Inhibition of DNA-PK", "setting": "DNA-PK", "result": "inhibited"}, {"measurement": "Body weight", "setting": "WM3918 xenografts", "result": "no major loss in body weight"}, {"measurement": "Tumor growth", "setting": "WM3918 xenografts; 11 days", "result": "suppressed tumor growth"}, {"measurement": "% inhibition of SYK", "setting": "SYK; 10 μM, ATP at Km,app", "result": 94, "unit": "%"}, {"measurement": "Potency on SYK relative to MTX-211", "setting": "SYK; ratio of IC50", "result": "~ 21 fold"}, {"measurement": "IC50", "setting": "SYK; read-out: SYK IC50, 0.5 nM to 10 μM, ATP at Km,app", "result": 0.281, "unit": "µM"}, {"measurement": "Change in p-4EBP1^T37/46 levels", "setting": "p-4EBP1^T37/46", "result": "did not decrease p-4EBP1 levels at concentrations below 1 μM"}, {"measurement": "Change in p-AKT^S473 levels", "setting": "p-AKT^S473", "result": "decreased p-AKT levels in a dose-dependent manner"}, {"measurement": "Body weight", "setting": "COLO792 xenografts", "result": "no major loss in body weight"}, {"measurement": "Tumor growth", "setting": "COLO792 xenografts; 20 days", "result": "suppressed tumor growth"}, {"measurement": "p-AKT levels in excised tumors", "setting": "[2]", "result": "significant reduction"}, {"measurement": "Change in p-ERK^T202/Y204 levels", "setting": "p-ERK^T202/Y204", "result": "no significant effect"}, {"measurement": "Overall drug sensitivity (area over the dose-response curve)", "setting": "[1]", "result": "similarly sensitive to both IACS-010759 and MTX-216"}, {"measurement": "Normalized growth rate (DIP rate) dose response", "setting": "[1]", "result": "consistently cytotoxic"}, {"measurement": "Inhibition of mTOR", "setting": "mTOR", "result": "inhibited"}, {"measurement": "Inhibition of PI4KB", "setting": "PI4KB", "result": "inhibited"}, {"measurement": "Inhibition of p-BLNK^Y96 levels", "setting": "p-BLNK^Y96", "result": "more efficient in inhibition of p-BLNK in comparison with MTX-211"}, {"measurement": "p-EGFR levels in excised tumors", "setting": "[3]", "result": "significant reduction"}, {"measurement": "Cytotoxicity (normalized growth rate)", "setting": "[4]", "result": "no cytotoxicity"}]}
{"compound": "COc1ccc(-c2ccc3c(N4CCOC[C@@H]4C)nc(N4CCOC[C@@H]4C)nc3n2)cc1CO", "note": "[AZD8055]", "values": [{"measurement": "Change in p-4EBP1^T37/46 levels", "setting": "p-4EBP1^T37/46", "result": "potently reduced"}, {"measurement": "Change in p-AKT^S473 levels", "setting": "p-AKT^S473", "result": "decreased p-AKT levels in a dose-dependent manner"}, {"measurement": "Change in p-ERK^T202/Y204 levels", "setting": "p-ERK^T202/Y204", "result": "no significant effect"}]}
{"compound": "CS(=O)(=O)Nc1cc(-c2ccc3ncnc(Nc4ccc(F)c(Cl)c4)c3c2)cnc1Cl", "note": "[MTX-211, N-(2-chloro-5-(4-((3-chloro-4-fluorophenyl)amino)quinazolin-6-yl)pyridin-3-yl)methanesulfonamide]", "values": [{"measurement": "Inhibition of DNA-PK", "setting": "DNA-PK", "result": "inhibited"}, {"measurement": "IC50", "setting": "SYK; SYK IC50, 0.5 nM to 10 μM, ATP at Km,app", "result": "~6", "unit": "µM"}, {"measurement": "inhibition at 10 µM", "setting": "SYK; read-out: % inhibition of SYK", "result": 52, "unit": "%"}, {"measurement": "Change in p-4EBP1^T37/46 levels", "setting": "p-4EBP1^T37/46", "result": "did not decrease p-4EBP1 levels at concentrations below 1 μM"}, {"measurement": "Change in p-AKT^S473 levels", "setting": "p-AKT^S473", "result": "decreased p-AKT levels in a dose-dependent manner"}, {"measurement": "Change in p-ERK^T202/Y204 levels", "setting": "p-ERK^T202/Y204", "result": "no significant effect"}, {"measurement": "Inhibition of mTOR", "setting": "mTOR", "result": "inhibited"}, {"measurement": "Inhibition of PI4KB", "setting": "PI4KB", "result": "inhibited"}]}
{"compound": "CS(=O)(=O)N1CCN(Cc2cc3nc(-c4cccc5[nH]ncc45)nc(N4CCOCC4)c3s2)CC1", "note": "[pictilisib]", "values": [{"measurement": "Change in p-4EBP1^T37/46 levels", "setting": "p-4EBP1^T37/46", "result": "did not decrease p-4EBP1 levels at concentrations below 1 μM"}, {"measurement": "Change in p-AKT^S473 levels", "setting": "p-AKT^S473", "result": "decreased p-AKT levels in a dose-dependent manner"}, {"measurement": "Change in p-ERK^T202/Y204 levels", "setting": "p-ERK^T202/Y204", "result": "no significant effect"}]}
{"compound": "CC(C)Nc1cc(-c2c[nH]c(C(=O)N[C@H](CO)c3cccc(Cl)c3)c2)c(Cl)cn1", "note": "[ulixertinib]", "values": [{"measurement": "Normalized growth rate (DIP rate) dose response", "setting": "[1]", "result": "potent but less efficacious responses"}]}
{"compound": "Cc1nc(-c2nc(-c3ccc(OC(F)(F)F)cc3)no2)nn1Cc1cccc(N2CCC(S(C)(=O)=O)CC2)c1", "note": "[IACS-010759]", "values": [{"measurement": "Overall drug sensitivity (area over the dose-response curve)", "setting": "[1]", "result": "similarly sensitive to both IACS-010759 and MTX-216"}, {"measurement": "Growth inhibition (live cell count, normalized growth rate)", "setting": "[1]; all tested NF1^LoF cell lines, indicated doses", "result": "inhibited growth in a dose-dependent fashion"}]}
{"compound": "CC(=O)Nc1cccc(-n2c(=O)n(C3CC3)c(=O)c3c(Nc4ccc(I)cc4F)n(C)c(=O)c(C)c32)c1", "note": "[trametinib]", "values": [{"measurement": "Change in p-4EBP1^T37/46 levels", "setting": "p-4EBP1^T37/46", "result": "no effect"}, {"measurement": "Change in p-AKT^S473 levels", "setting": "p-AKT^S473", "result": "but not trametinib, decreased p-AKT levels"}, {"measurement": "Change in p-ERK^T202/Y204 levels", "setting": "p-ERK^T202/Y204", "result": "reduced ERK phosphorylation in a dose-dependent manner"}, {"measurement": "Normalized growth rate (DIP rate) dose response", "setting": "[1]", "result": "potent but less efficacious responses"}]}
